Assay results published in patent US12037329B2, “SphK inhibitors and methods of making and using same” (Washington University, priority 2021, dated 2024).
“Also recorded” adds a separate entry of the source.

Assays:
[1] = target: SphK1 (Homo sapiens (Human), UniProt Q9NYA1); conditions: cited from earlier work
[2] = target: T1, SphK2 (Homo sapiens (Human), UniProt Q9NRA0); conditions: human SphK2; cited from earlier work
[3] = system: MDA-MB-453 cells; test: CellTiter96 MTS cell viability dose response, MDA-MB-453; assay type: cell-based; conditions: Homo sapiens, MD-MB-453 (MDA-MB-453) cells
Procedure: (§1) The anti-tumor activity of these inhibitors was also examined in different cell types. U-251 MG cells, SiHa cells, BT20 cells, and MDA-MB-453 cells were treated with increasing dose (10^−10 M to 10^−4 M) of SphK2 inhibitor TZ72-53 (21b), and dose response curves were generated (FIG. 9). IC50 values of 21b in the four different cell lines were calculated by non-linear regression analysis of the dose-response curve and are shown in Table 5 below.
(§2) Cell viability was determined using CellTiter96 MTS Assay and compared to DMSO treated control cells. IC50 values were calculated by non-linear regression analysis of the dose-response curve using GraphPad Prism version 8.00 for Windows (GraphPad Software).

[4] = system: BT20 cells; test: CellTiter96 MTS cell viability dose response, BT20; assay type: cell-based; conditions: Homo sapiens, BT-20
Procedure: as §1, §2

[5] = system: SiHa cells; test: CellTiter96 MTS cell viability dose response, SiHa; assay type: cell-based; conditions: Homo sapiens
Procedure: as §1, §2

[6] = target: T1, SphK2; test: ADP-Glo kinase assay, SphK2; assay type: biochemical
Source text: The bioluminescence-based kinase assay such as ADP-Glo assay measures ADP formed from a kinase reaction with a luciferase. Upon the completion of a kinase reaction, the remaining ATP is depleted, the ADP produced in the kinase reaction is then converted to ATP and the detection is based on a sensitive and robust bioluminescence reaction. It has a broad linear range of ATP concentrations and high dynamic range. To determine the inhibition activity of the compounds, the ADP-Glo kinase assay was used which was able to detect down to 20% of 1 μM ATP to ADP conversion (FIG. 4A).
ADP-Glo (Promega, Madison, WI) kinase assay were used to evaluate the kinase activity of SphK. ATP to ADP standard curves were prepared in the kinase buffer to assess the linearity of the assay in order to calculate the amount of ADP produced in each tested conditions (FIG. 4A). SB10 (tenfold signal to background ra-tio) of SphK was also determined to evaluate the enzyme perfor-mance and to optimize the kinase reaction condition in this system. In brief, for SphK2, […], 100 μM of D-erythro-Sphingosine (Tocris Bioscience, Minneapolis, MN), and 2 ng of recombinant human SphK2 (R&D Systems, Minneapolis, MN) with desired concentration of each synthesized compound were used for SphK2 kinase reaction. For SphK1, exact same reaction condition was used except 0.5 ng of recombinant human SphK1 was used.
To evaluate the SphK selectivity of each compound, 125 μM of each compound in reaction buffer ([…] Tris, pH 8.0, […] MgCl2, and 0.1 mg/mL BSA) with 5% DMSO was incubated with either SphK1 or SphK2 in a 384-well solid white low volume microplate (Corning, Corning, NY), and the reaction was initiated by adding mixture of ATP and D-erythro-Sphingosine to a total volume of 5 μL, after 1 h incubation at room temperature with gentle shaking, the reaction was stopped by adding equal volume of ADP-Glo buffer and incubated for another hour to remove excess amount of ATP from the reaction. Afterwards, 10 μL of kinase detection reagent was added, mixed, and incubated for 30 min under dark. Luminescence output was recorded using a SpectraMax M5 Multi-Mode Microplate Readers (Molecular Devices, San Jose, CA), an integration time of 500 ms was used. All reactions were performed in triplicate. The enzyme activity of SphK in the presence of each compound was normalized to the no treatment control. […] The final data was calculated using Prism 7.0 (GraphPad Software, La Jolla, CA), IC50 was determined using Nonlinear regression (curve fit) four parameters dose-response calculations.

[7] = system: U-251 MG cells; test: CellTiter96 MTS cell viability dose response, U-251 MG; assay type: cell-based, human; conditions: Homo sapiens; U-251 MG cells, 72 h, MTS; read-out: IC50 (cell viability)
Procedure: The anti-tumor activity of these inhibitors was further examined at different doses.
as §2

[8] = system: U-251 MG human glioblastoma cells; test: U-251 MG cell viability, Hoechst 33258/propidium iodide imaging, 125 μM, 24 h; assay type: cell-based; conditions: hydrochloride
Procedure: Cells were seeded into a 96-well microplate (Corning, Corning, NY) at 3000 cells/well and incubated for approximately 16 h. […] Cells were imaged using MetaXpress High-Content Image Acquisition and Analysis Software 6.1 and ImageXpress Micro XLS Wide-field High-Content Analysis System (Molecular Devices, San Jose, CA). Images were taken with a Nikon 10 CFI Plan Fluor objective. For all samples, triplicated measurements were performed.

T1 sequence (Q9NRA0 whole entry): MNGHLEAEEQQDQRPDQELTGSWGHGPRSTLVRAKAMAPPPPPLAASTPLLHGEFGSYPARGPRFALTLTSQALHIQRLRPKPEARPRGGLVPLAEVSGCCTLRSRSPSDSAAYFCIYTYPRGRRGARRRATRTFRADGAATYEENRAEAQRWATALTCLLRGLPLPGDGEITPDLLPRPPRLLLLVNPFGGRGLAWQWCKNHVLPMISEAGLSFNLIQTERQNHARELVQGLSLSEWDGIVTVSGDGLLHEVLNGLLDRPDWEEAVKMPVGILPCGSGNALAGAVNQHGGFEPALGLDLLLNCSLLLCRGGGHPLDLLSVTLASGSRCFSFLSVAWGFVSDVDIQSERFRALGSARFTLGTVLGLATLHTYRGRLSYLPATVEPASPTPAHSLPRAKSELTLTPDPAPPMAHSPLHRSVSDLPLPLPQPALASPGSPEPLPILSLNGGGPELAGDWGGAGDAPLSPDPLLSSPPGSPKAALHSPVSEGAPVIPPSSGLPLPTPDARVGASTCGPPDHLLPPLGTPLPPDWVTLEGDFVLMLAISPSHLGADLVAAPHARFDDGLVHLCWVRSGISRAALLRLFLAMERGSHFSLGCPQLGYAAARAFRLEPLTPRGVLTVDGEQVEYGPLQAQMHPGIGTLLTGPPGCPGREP
SphK1, sequence (Q9NYA1 whole entry): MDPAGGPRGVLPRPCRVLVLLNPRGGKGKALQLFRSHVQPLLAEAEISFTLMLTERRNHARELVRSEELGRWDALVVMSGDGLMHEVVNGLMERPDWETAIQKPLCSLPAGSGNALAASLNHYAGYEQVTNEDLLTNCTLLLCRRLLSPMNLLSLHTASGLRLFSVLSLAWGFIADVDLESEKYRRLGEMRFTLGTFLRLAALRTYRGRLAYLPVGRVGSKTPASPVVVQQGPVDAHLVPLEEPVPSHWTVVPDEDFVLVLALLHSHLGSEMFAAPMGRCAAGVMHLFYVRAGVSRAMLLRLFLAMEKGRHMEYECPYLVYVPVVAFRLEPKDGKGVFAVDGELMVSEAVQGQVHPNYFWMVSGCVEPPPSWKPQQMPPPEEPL

IC50 [3] | IC50 [4] | SphK2 inhibitory activity (in words) [6] | IC50 [7] | Compound | Ki [1] | Ki [2] | IC50 [5] | selectivity/specificity for SphK2 over SphK1 ([6]; 125 μM of each compound, SphK2 versus SphK1, FIG. 5, hydrochloride) | antitumor activity / reduction of U-251 MG cell viability (in words) [8]
 |  |  |  | Cc1ccc(S(=O)(=O)Nc2ccccc2C=Nc2ccccc2NS(=O)(=O)c2ccc(C)cc2)cc1 [MP-A08] | 27 ± 3 µM | 6.9 ± 0.8 µM |  |  | 
35.8 µM | 21.3 µM | no inhibitory activity | 11 µM | Cl.N=C(N)N1CCC[C@H]1Cc1nc(-c2ccc(Cn3cc(-c4ccc(C(F)(F)F)cc4)nn3)cc2)no1 [Compound 21b, (S)-2-((3-(4-((4-(4-(Trifluoromethyl)phenyl)-1H-1,2,3-triazol-1-yl)methyl)phenyl)-1,2,4-oxadiazol-5-yl)methyl)-pyrrolidine-1-carboximidamide hydrochloride] |  |  | 13 µM | lowest specificity; also recorded: no selectivity | high anti-tumor activity; also recorded: significant reduction
